The values that follow come from publication PMC5057504, “Amyloid-β 1–24 C-terminal truncated fragment promotes amyloid-β 1–42 aggregate formation in the healthy brain” (Acta Neuropathologica Communications, 2016).

One series has as its system TNF-alpha. In words: TNF-alpha ELISA in serum and brain of intracranially injected wt mice. The following applies: wt mice 2.5 months after i.c. injection. The class given is in vivo, mouse.
A further series concerns wt mice. In words: Behavioral tests (open field, social interaction, novel object recognition) after intracranial injection. Type of series: in vivo, mouse. The following applies: wt mice i.c. injected, compared with vehicle and age matched APP/PS1 mice. As for the experimental part:
Mice were placed in a multi-unit open field maze (ViewPoint instruments) with field chamber (25 cm long and 25 cm wide), and activity was recorded using ViewPoint video tracking software. Each quadrant was digitally divided into a peripheral and a central region using ViewPoint video tracking software. The central quadrants are collectively referred to as the center zone and peripheral quadrants are collectively referred to as the peripheral zone. Data were collected continually for 30 min and the distance traveled (cm), velocity (cm/s), and the distance traveled in the center zone versus the peripheral zone were all recorded and scored automatically. In the open field task ambulatory movements (valued as distance traveled and movement speeds) and anxiety-like behaviors (as the as distance traveled in the center zone versus the peripheral zone) can be assessed in response to a novel environment.
The social interaction test was used to measure how mice respond to a social partner during a 5-min test following isolation housing. Since isolation housing potentiates expression of innate territorial defensive responses, in this test we evaluated the reaction of mice to the presence of a new animal in free conditions in the same arena. […]
The test apparatus consisted of an open field box measuring 50 cm × 25 cm and all sessions were video-recorded. […]

Another series has as its system wt mice brain. The experiment in a line: Intracranial injection in wt mice: amyloid aggregate deposition (6E10 DAB, Congo red, ThT staining). The settings on record: for ThT-positive aggregates in brain sections: 2.5 months after i.c. injection; for 6E10-positive aggregates in brain, 6 months after injection: i.c. injection of oligomeric peptide, 6E10 followed by HRP. Type of series: in vivo, mouse. As for the experimental part: Mice were anesthetized and perfused with 0.9 % saline, followed by 4 % PFA. The 30 μm cryosections of brain were blocked in PBS containing 10 % goat serum and 0.1 % Triton X-100 for 1 h at room temperature before being incubated overnight at 4 °C with primary antibodies. The following day, the slides were rinsed in PBS and incubated at room temperature for 1 h with secondary antibody. The slides were processed using the ABC detection kit (Vector Laboratories). […] Immunofluorescence and ThT staining were performed on brain sections. Brain slices were washed three times in PBS and incubated for 1 h at room temperature in blocking solution (3 % BSA). Subsequently, the slides were washed 3 times and incubated overnight with specific antibodies. The next day, sections were washed in PBS and incubated for 2 h at room temperature with specific fluorochrome-conjugated secondary antibodies diluted in 3 % BSA in the dark. ThT solution was prepared as described above. Final solution was added to free floating slides for 1 min and very quickly washed with 80 % methanol followed by 3 washes with distilled water. Images were acquired by Virtual Slides microscope (VS120, Olympus). For quantification, both diffuse-plaques and dense-core plaques were considered, as described in [92]. Small dots and deposits at the slice edge were not counted. The entire surface of the slice was examined. For congo red histological staining, slices were air-dried on glass overnight, then stained with a 0.2 % congo red solution according to [93]. Specimens were acquired by transmittance polarized light microscopy, FITCH filtered epifluorescence. For quantification, bright field images were analyzed by color segmentation plugin-ImageJ software (NIH, Bethesda, MD). The entire area of deposits was considered.

Series [1] is described as follows: ATR-FTIR spectroscopy of peptide assemblies. The class given is physicochemical. The following applies: 100 μM peptide (mix 50 μM each), incubated at 37 °C in PBS, 20 min to 6 days; hydrated film. As for the experimental part: The in vitro aggregation of Aβ samples was monitored by ThT assay (Fig. 6a–c). ThT fluorescence emission was recorded at different incubation times at 37 °C in physiological buffer. […] Further, we recorded the emission fluorescence spectra of the samples incubated for 96 h at 37 °C after tyrosine excitation at 270 nm, which is also able to produce ThT fluorescence. […] The secondary structures of the peptide assemblies were also investigated by Fourier transform infrared (FTIR) spectroscopy in attenuated total reflection (ATR) (Fig. 6d). […] During incubation at 37 °C of H-Aβ42, this component increased in intensity while that at ~1695 cm^−1 decreased (Fig. 6d). These spectral changes have been already observed in the fibrillogenesis of Aβ peptides and of other proteins, and assigned to the conformational conversion towards fibrillar structures with a parallel orientation of the intermolecular β-sheets. […]
For the ATR-FTIR measurements, 2 μL of Aβ42 (at 100 μM concentration), of Aβ24 (at 100 μM concentration), or of the equimolar mixture of the two peptides (at 50 μM concentration each) were deposed on the single reflection diamond element of the ATR device (Quest, Specac, UK). Spectra were recorded after solvent evaporation to allow the formation of an hydrated film as previously described. […]

In the next series the target is T1, murine Aβ (Mus musculus, UniProt P12023).
T1 construct: co-aggregation of the injected peptide and endogenously produced mouse Aβ42, retained in the brain; from tissue; host or cells: brain homogenate (supernatant and pellet fractions) of injected wild-type mice
T1 sequence (P12023 672-713 limits assumed): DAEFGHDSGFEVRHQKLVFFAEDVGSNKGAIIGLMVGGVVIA
The experiment in a line: Immunoblot of brain homogenate fractions with murine-Aβ-specific antibody m3.2. Type of series: in vivo. The following applies: wt mice analyzed 4 months after i.c. injection; supernatant and pellet. The protocol:
Animals were anesthetized and perfused with PBS before brains were removed, weighted and homogeneted in a mild hypotonic buffer (50 mM Tris pH 8, 150 mM NaCl, 5 mM EDTA supplemented with phosphatase and protease inhibitor, EDTA-free, Roche). Supernatants were then centrifuged for 1 h at 3000 × g to pellet insoluble material, including insoluble Aβ species. Samples were either frozen on dry ice or LDS sample buffer (Invitrogen) containg 5 % β-mercaptoethanol was immediately added. Pellets were directly resuspended in 20 μl of LDS sample buffer. 10 μl sample were loaded onto a Bolt 4–12 % Bis-Tris Plus Gels (Thermo Fisher) for Western Blot evaluation. Samples were separated using MES buffer and transferred onto a […] nitrocellulose membrane (Bio-Rad). Membranes were washed in TBS-Tween (150 mM NaCl, 50 mM Tris and 0.1 % (v/v) Tween-20) and incubated for 45 min at room temperature in blocking solution (5 % milk or 2.5 % serum bovine albumin in TBST). Membranes were subsequently probed overnight at 4 °C with primary antibodies diluted in TBS-T buffer. Membranes were washed extensively and incubated for 45 min at room temperature with horseradish peroxidase-conjugated (HRP) secondary antibody diluted in TBST buffer. Antibody-specific signals were detected using enhanced chemiluminescence reagents (Clarity Western ECL substrate, Bio-Rad).
A general note: Immunoblotting shows a protein as a band on a membrane.

Protocol for TNF-alpha: Stereotaxic intracranial injections in mice brains were made under a mixture of ketamine (100 mg/kg) and xylazine (10 mg/kg) anesthesia. After surgical exposure of dura mater, both the bregma and the skull surface served as the stereotaxic zero points. Using a Hamilton syringe, 4 μL of H-Aβ or vehicle (vehicle consists of physiological buffer−50 mM NaPi, 100 mM NaCl pH 7.4−) were injected into the neocortex (AP 1 mm, ML 2 mm, DV−2 mm) with a speed of 1.5 μL/min, the needle was kept in place for an additional minute before it was slowly drawn out. For each experiment 4 pmol of H-Aβ42, 4 pmol of H-Aβ24 and 2 pmol of H-Aβ42 plus 2 pmol of H-Aβ24 for the mix condition were injected, as described in [70, 90]. Different conditions were used for specific experiments as specified in the text. After suturing the incision, mice were maintained on a warm pad until recovery from the anesthesia, then returned to their cages.
Protocol for bEnd.3 cells: (ATCC® CRL2299™) were used as a representative BBB model. bEnd.3 cells were cultured at 37 °C, 5 % CO2/saturated humidity in DMEM supplemented with 10 % heat-inactivated fetal bovine serum (FBS), 1 % penicillin-streptomycin.
bEnd.3 cells were seeded at a concentration of 30000 cells/cm^2 onto geltrex-coated (thin layer; Gibco) transwell inserts (polycarbonate, 12 mm diameter, 3 μm pore size; Costar) until a monolayer was established.
To assess Aβ42 exchange across the BBB model, bEnd.3 cells were cultured upside-down on a transwells system as described above, until steady-state TEER had been reached. […] The level of fluorescence in the media collected was measured for 488-Aβ42 (λex = 503 nm and λem = 528 nm) or for FAM-Aβ42 (λex = 492 nm and λem = 518 nm) using a Synergy™ H4 Hybrid Multi-Mode Microplate Reader (BioTek). Relative fluorescence units were converted to concentration according to prepared standard, and were corrected for background fluorescence. […] Briefly, Aβ42 volume cleared (ΔVc) was calculated using the equation ΔVc = Clower × Vlower/Cupper, where Cupper and Clower are fluorescently-labeled Aβ42 concentrations in the donor and receiving compartments, respectively, and Vlower is the volume on the basolateral side. […] Permeability coefficients (P) were calculated by dividing against the surface area of the filter (1.12 cm^2). […]
Protocol for primary microglia: Primary microglia were obtained from mixed cultures prepared from the cerebral cortex of mice at the postnatal day 1 (P1-3). Microglia cells were isolated by shaking flasks for 45 min at 230 rpm at day 10 after plating. Cells were then seeded on poly-L-ornithine (Sigma) pre-coated wells at the density of 1,5×10^5 cell/mL in DMEM containing 20 % heat-inactivated fetal bovine serum (FBS) and incubated at 37 ° C in a humidified atmosphere of 5 % CO2 and 95 % air. Where indicated, cells were pre-treated for 45 min with protease inhibitors and EDTA 2.5 mM (Roche) which were directly added to the cell culture medium. […] When not differently indicated, for in vitro experiments microglia were treated with H-Aβ42 400 nM.
Aliquots of supernatant samples (200 μL) were loaded on nitrocellulose membrane Trans-Blot Transfer Medium (0.22 μm, Bio-Rad), by vacuum deposition on the Bio-Dot SF blotting apparatus (Bio-Rad). Serial dilution curves of Aβ42 synthetic protein were preliminarily run to obtain non-saturating condition of immunodetection. DB dots images were analysed by Image Lab™ software (Bio-Rad).
Aβ42 levels were determined using specific ELISA kit (Amyloid-beta (x-42) ELISA IBL, International) following manufacturer’s instructions. Briefly, 100 μL of sample was added into the pre-coated plate and was incubated overnight at 4 °C. After washing each well of the pre-coated plate, 100 μL of labeled antibody solution was added and the mixture was incubated for 1 h at 4 °C in the dark. After washing, chromogen was added and the mixture was incubated for 30 min at room temperature in the dark. After the addition of stop solution, the resulting color was assayed at 450 nm using a microplate absorbance reader (Synergy H4 Synergy™ H4 Microplate Reader, BioTek).

For the substance “HiLyte Fluor™ 488-labeled Beta-Amyloid (1–42) [488-conjugated H-Aβ42]”, the Internalization by microglia entry with primary microglia (primary microglia, 1 μM, 3 h of treatment) is “efficiently internalized”.
As to Synthetic human Aβ1–42 [H-Aβ42], in the series on TNF-alpha, the “TNF-alpha levels in serum and brains” value is listed as “much less”. Also, in the series with wt mice, the “Behavioral phenotype (open field, sociality task, NOR)” value was “some behavioral alterations”. In addition, the “ThT-positive aggregates in brain sections” value with wt mice brain is “only ThT-positive blood vessels”. Further, the “6E10-positive aggregates in brain, 6 months after injection” value with wt mice brain (4 pmol (mix 2 + 2 pmol)) is reported as “did not cause Aβ deposition”. Besides, the “ATR-FTIR Amide I band (secondary structure of the assemblies)” value in series [1] was “higher intensity of the ~1628 cm^−1 peak”. Also, in the series with primary microglia, the “Extracellular Aβ42 in microglia medium, ELISA with capture antibody 6E10 (N-terminal), detection 4G8” value was “lack of changes”; the “Extracellular Aβ42 in microglia medium, ELISA with capture antibody against the C-terminal domain” value is recorded as “significant decrease”; the “Extracellular Aβ42 in microglia medium, dot blot with C-terminal anti-Aβ42” value was “reduction of extracellular Aβ42”.
Take synthetic human Aβ1-24 peptide [H-Aβ24]: the “m3.2 positive bands (murine Aβ) in brain homogenate fractions” value with murine Aβ is recorded as “presence of m3.2 positive bands”. In addition, the “TNF-alpha levels in serum and brains” value with TNF-alpha is listed as “significant increase”. For the same substance, the “Behavioral phenotype (open field, sociality task, NOR)” value in the series with wt mice is recorded as “cognitive defects comparable to APP/PS1 mice”. In the series on bEnd.3 cells, the “Effect of H-Aβ24 on the diffusion of fluorescently labeled scrambled H-Aβ42” value was “No effect” and the “H-Aβ42 apical-to-basolateral passage when pre-incubated with H-Aβ24, dot blot” value is “decreased amount of H-Aβ42”. Besides, in the series on wt mice brain, the “ThT-positive aggregates in brain sections” value is recorded as “ThT-positive aggregates were detected”. The “6E10-positive aggregates in brain, 6 months after injection” value in the series on wt mice brain (4 pmol (mix 2 + 2 pmol)) is reported as “induced the formation of aggregates”. Further, the “6E10-positive aggregates in brain, 2.5 months after injection” value in the series with wt mice brain (i.c. injection, 4 pmol (mix 2 + 2 pmol)) is listed as “already detectable”. The “ATR-FTIR Amide I band (secondary structure of the assemblies)” value in series [1] was “two main peaks at ~1695 cm^−1 and ~1628 cm^−1”.
